According to patent US7833795B2, “Assessment of cardiovascular risk using isoprostane biomarkers and COX-2 selective inhibitors” (The Trustees of the University of Pennsylvania, priority 2004, dated 2010):

Legend:
Assay type in all cases: in vivo, rat
Male Fisher 344 rats [1] = test: Plasma protein carbonyls
Description: (§1) Animals and treatment protocol: Male Fisher 344 rats (260-280 g) obtained from Charles River Laboratories (Raleigh, N.C.) were used in all experiments. The animals were housed three to a cage. Autoclaved hardwood bedding was used in solid-bottom polycarbonate cages with filter tops. Animal rooms were maintained at 20-25° C. with 35-70% relative humidity with alternating 12-hour light and dark cycles. The rats had free access to deionized, reverse-osmosis-treated water and received autoclaved NIH 31 rodent chow (Zeigler Bros., Gardners, Pa.) ad libitum. For all experiments, rats were fasted overnight and then administered intraperitoneal injections of carbon tetrachloride in canola oil. Control rats received an equal volume of canola oil. Fasting continued throughout the experiment. Rats were anesthetized with Nembutal (0.1 ml/100 g body weight) and 5 ml blood was removed from the dorsal aorta proximal to its bifurcation into the common iliac arteries.
(§2) Carbon tetrachloride (CCL4) treatment: Animals from each of the three dose groups (Control-canola oil, 120 mg/kg CCl4 i.p. and 1200 mg/kg CCl4 i.p.) were investigated at three time points (2, 7, and 16 hours after CCl4 injection). Indomethacin-pretreated rats were also investigated at the same three time points, and the meclofenamic acid-pretreated rats were investigated at one time point (7 hours). Each group consisted of five rats for each analysis, except the meclofenamic acid pretreatment group which consisted of six rats. Animal treatment, sample preparation, assessment of liver histology and serum enzyme activities are described elsewhere (Kadiiska et al., 2000, Free Radic. Biol. Med. 28: 838-845; Jackson, 1989, J. Pharmacol. Exp. Ther. 250: 9-21) and were carried out at NIEHS, Research Triangle Park, N.C.
(§3) Plasma sample preparation: Blood (5 ml) was drawn through single draw Vacutainer® needles (21 Gauge) into open Vacutainer® blood collection tubes containing heparin. The tubes were gently inverted 2-3 times for mixing and immediately placed on ice. Blood was centrifuged (2,000 rpm for 10 minutes at 4° C.) no more than 30 minutes after collection, and the plasma was collected, frozen on dry ice and stored at −70° C.
Several different assays for oxidation products of proteins were employed. The protein carbonyl content (Agarwal and Sohal, 1995, Mech. Ageing Develop. 85: 55-63), indicative of plasma protein oxidative damage, was measured according to the method of Levine et al. (Levine et al., 1994, Meth. Enzymol. 233: 346-357), based on derivatization of carbonyls with tritiated borohydride, as described in detail by Yan and Sohal (2000, Current Protocols Protein Science 144: 105-128). The isolated protein was counted in a Beckman scintillation counter and calculated using a standard curve. The measurements were performed at the University of Southern California, Los Angeles.

Male Fisher 344 rats [2] = test: Plasma methionine sulfoxidation
Description: as §1, §2, §3
Methionine sulfoxidation was measured according to Levine et al. (1996, Proc. Natl. Acad. Sci. USA 93: 15036-15040). In brief, serum samples were hydrolyzed with HCl. The methionine sulfoxide residue was converted to methionine, which represents the methionine sulfoxide level in the protein. The samples were analyzed on a Beckman Model 7300 amino acid analyzer. The methionine concentrations were measured at Weill Medical College of Cornell University, New York, N.Y., USA.

Male Fisher 344 rats [3] = test: Urinary MDA by HPLC with spectrophotometry; details: for MDA (by HPLC with spectrophotometry): urine
Description: as §1
(§4) Indomethacin pretreatment: The indomethacin regimen used has been previously shown to inhibit COX activity in rats by 90% (dose of 5 mg/kg s.c. 24 hours, 12 hours, and 2 hours prior to the injection of CCl4) (Jackson, 1989, J. Pharmacol. Exp. Ther. 250: 9-21). An additional booster dose was injected 8 hours after the last injection of CCl4 for the measurements performed 16 hours after treatment with CCl4.
(§5) Meclofenamic acid pretreatment: Meclofenamic acid was injected at a dose of 5 mg/kg i.p. 12 h and 2 h prior to the injection of CCl4.
as §2
Urine sample preparation: The day prior to treatment, both experimental and control animals were placed in stainless steel metabolic cages especially designed for urine collection. For Experimental Example 2, animals were placed in metabolic cages immediately after the last injection of indomethacin or meclofenamic acid. Urine was collected (in dark vials) from the animals during the following intervals: 2 to 7 hours and 7 to 16 hours after CCl4 or canola oil (controls) treatment. Urine samples from indomethacin-pretreated rats were collected from 2 to 7 hours and 7 to 16 hours after the injection of CCl4, whereas samples from meclofenamic-acid-pretreated rats were collected only from 2 to 7 hours after the injection. All urine samples were immediately frozen on dry ice and stored at −70° C.
Urinary MDA was analyzed using high pressure liquid chromatography (HPLC). To 500 μl urine samples, 25 μl BHT and 750 μl 0.5% TBA solution were added, in this order. Samples were incubated at 60° C. for 60 minutes. After cooling, chloroform (750 μl) was added and mixed well. Following centrifugation, the aqueous layer was removed and used for HPLC analysis (column […]; mobile phase, 6:4(v/v) 0.04 M acetate buffer (pH 5.5)/MeOH; detection, 532 nm). The procedure was developed and performed by OXIS Research, Portland, Oreg.

Male Fisher 344 rats [4] = test: Plasma free 8-iso-PGF2α by GC/NICI-MS; details: for Free 8-iso-PGF2a (by GC-MS): plasma
Description: as §1, §4, §5, §2, §3
Two slightly different methods developed in two different laboratories were used to measure the effect of CCl4 on the plasma levels of free 8-iso-PGF2α, and the sum of free plus esterified 8-iso-PGF2α (also known as 8-epi-PGF2α and iPF2α-III and 15-F2t-IsoP). Free 8-iso-PGF2α concentrations in plasma were determined by gas chromatography/negative ion chemical ionization mass spectrometry (GC/NICI-MS) by the method of Morrow et al. (1999, Methods Enzymol. 300: 3-12). Briefly, [2H4] 8-iso-PGF2α internal standard was added to plasma and F2-isoprostanes were extracted with a C18 Sep-Pak® Cartridge (Waters Associates, Milford, Mass.). The extracted F2-isoprostanes were converted to pentafluorobenzyl ester and purified by TLC after which they were converted to a trimethylsilyl ether derivative and subsequently analyzed by GC-MS. The assay was developed and performed at Vanderbilt University, Nashville, Tenn.

## ClC(Cl)(Cl)Cl [CCl4, Carbon tetrachloride]
Male Fisher 344 rats [1]; CCl4 120 mg/kg i.p., 2 h
  Protein carbonyls (by HPLC): 0.40 nmol/mg protein
Male Fisher 344 rats [1]; CCl4 120 mg/kg i.p., 7 h
  Protein carbonyls (by HPLC): 0.42 nmol/mg protein
Male Fisher 344 rats [1]; CCl4 120 mg/kg i.p., 16 h
  Protein carbonyls (by HPLC): 0.51 nmol/mg protein
Male Fisher 344 rats [1]; CCl4 1200 mg/kg i.p., 2 h
  Protein carbonyls (by HPLC): 0.53 nmol/mg protein
Male Fisher 344 rats [1]; CCl4 1200 mg/kg i.p., 7 h
  Protein carbonyls (by HPLC): 0.59 nmol/mg protein
Male Fisher 344 rats [1]; CCl4 1200 mg/kg i.p., 16 h
  Protein carbonyls (by HPLC): 0.48 nmol/mg protein
Male Fisher 344 rats [2]; CCl4 120 mg/kg i.p., 2 h
  Methionine sulfoxide: 2.3 % of total methionine
Male Fisher 344 rats [2]; CCl4 120 mg/kg i.p., 7 h
  Methionine sulfoxide: 1.7 % of total methionine
Male Fisher 344 rats [2]; CCl4 120 mg/kg i.p., 16 h
  Methionine sulfoxide: 3.1 % of total methionine
Male Fisher 344 rats [2]; CCl4 1200 mg/kg i.p., 2 h
  Methionine sulfoxide: 1.8 % of total methionine
Male Fisher 344 rats [2]; CCl4 1200 mg/kg i.p., 7 h
  Methionine sulfoxide: 1.1 % of total methionine
Male Fisher 344 rats [2]; CCl4 1200 mg/kg i.p., 16 h
  Methionine sulfoxide: 1.7 % of total methionine
Male Fisher 344 rats [3]; CCl4 120 mg/kg i.p., 7 h
  MDA (by HPLC with spectrophotometry): 2.01 nmol/mg creatinine
Male Fisher 344 rats [3]; CCl4 120 mg/kg i.p., 16 h
  MDA (by HPLC with spectrophotometry): 1.54 nmol/mg creatinine
Male Fisher 344 rats [3]; CCl4 1200 mg/kg i.p., 7 h
  MDA (by HPLC with spectrophotometry): 2.61 nmol/mg creatinine
Male Fisher 344 rats [3]; CCl4 1200 mg/kg i.p., 16 h
  MDA (by HPLC with spectrophotometry): 2.16 nmol/mg creatinine
Male Fisher 344 rats [3]; higher dose of CCl4, urine collected 7 hours after treatment
  increase of urinary MDA: 3 fold
Male Fisher 344 rats [4]; CCl4 120 mg/kg i.p., 2 h
  Free 8-iso-PGF2a (by GC-MS): 0.48 ng/mL
Male Fisher 344 rats [4]; CCl4 120 mg/kg i.p., 7 h
  Free 8-iso-PGF2a (by GC-MS): 0.34 ng/mL
Male Fisher 344 rats [4]; CCl4 120 mg/kg i.p., 16 h
  Free 8-iso-PGF2a (by GC-MS): 0.27 ng/mL
Male Fisher 344 rats [4]; CCl4 1200 mg/kg i.p., 2 h
  Free 8-iso-PGF2a (by GC-MS): 1.80 ng/mL
Male Fisher 344 rats [4]; CCl4 1200 mg/kg i.p., 7 h
  Free 8-iso-PGF2a (by GC-MS): 1.27 ng/mL
Male Fisher 344 rats [4]; CCl4 1200 mg/kg i.p., 16 h
  Free 8-iso-PGF2a (by GC-MS): 0.74 ng/mL
Male Fisher 344 rats [4]; high dose CCl4, 2 hours
  increase of free plasma 8-iso-PGF2α: 18 fold
Male Fisher 344 rats [4]; high dose CCl4, 7 hours
  increase of free plasma 8-iso-PGF2α: 10 fold
Male Fisher 344 rats [4]; high dose CCl4, 16 hours
  increase of free plasma 8-iso-PGF2α: 7 fold
